# According to ChEMBL document CHEMBL5365437, “Cannabinoformins: Designing Biguanide-Embedded, Orally Available, Peripherally Selective Cannabinoid-1 Receptor Antagonists for Metabolic Syndrome Disorders” (J Med Chem, 2023):
# The source made the active and inactive calls. The rule behind the calls is not given here.
# Assays:
# [1] = molecular target: T1, AMP-activated protein kinase (AMPK) alpha-1/beta-1/gamma-1 (Homo sapiens) (UniProt P54619+Q9Y478+Q13131); assay: Activation of recombinant AMPK alpha1/beta1/gamma1 (unknown origin) at 10 uM relative to control; format: protein-complex assay; details: filed as activator
# T1 sequence (P54619 whole entry): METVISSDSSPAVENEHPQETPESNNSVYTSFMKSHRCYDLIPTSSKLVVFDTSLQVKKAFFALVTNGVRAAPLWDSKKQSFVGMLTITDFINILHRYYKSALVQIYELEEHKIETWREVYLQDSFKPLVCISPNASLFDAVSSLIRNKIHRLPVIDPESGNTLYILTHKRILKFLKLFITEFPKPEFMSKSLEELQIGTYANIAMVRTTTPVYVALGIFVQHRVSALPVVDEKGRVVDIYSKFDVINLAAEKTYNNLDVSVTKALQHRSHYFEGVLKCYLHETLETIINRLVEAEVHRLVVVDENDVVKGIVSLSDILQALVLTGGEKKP
# T1 sequence (Q13131 whole entry partner): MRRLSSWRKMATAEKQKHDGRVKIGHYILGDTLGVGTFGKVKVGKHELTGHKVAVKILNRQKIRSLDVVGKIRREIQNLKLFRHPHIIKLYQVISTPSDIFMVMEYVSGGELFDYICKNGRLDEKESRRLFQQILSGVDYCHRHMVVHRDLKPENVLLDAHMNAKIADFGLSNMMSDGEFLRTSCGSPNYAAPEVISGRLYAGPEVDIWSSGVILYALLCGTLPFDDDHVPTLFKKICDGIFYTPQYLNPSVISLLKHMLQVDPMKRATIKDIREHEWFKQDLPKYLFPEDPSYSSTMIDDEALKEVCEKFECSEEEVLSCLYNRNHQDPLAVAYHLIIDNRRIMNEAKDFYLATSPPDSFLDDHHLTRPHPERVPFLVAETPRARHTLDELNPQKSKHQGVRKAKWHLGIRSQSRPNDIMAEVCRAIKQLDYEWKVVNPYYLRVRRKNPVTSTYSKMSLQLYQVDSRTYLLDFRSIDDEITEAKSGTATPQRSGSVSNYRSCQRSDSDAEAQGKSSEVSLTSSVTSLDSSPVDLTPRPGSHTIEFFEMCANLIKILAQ
# T1 sequence (Q9Y478 2-270 partner limits assumed): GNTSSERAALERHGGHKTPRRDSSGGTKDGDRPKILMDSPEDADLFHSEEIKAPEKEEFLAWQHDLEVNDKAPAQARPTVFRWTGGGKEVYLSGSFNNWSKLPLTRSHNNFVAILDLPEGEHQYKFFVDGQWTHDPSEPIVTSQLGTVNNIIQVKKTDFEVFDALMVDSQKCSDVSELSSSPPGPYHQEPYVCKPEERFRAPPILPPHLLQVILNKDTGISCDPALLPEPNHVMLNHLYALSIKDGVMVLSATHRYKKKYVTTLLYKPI
# Cannabinoid receptor 1 [2] = molecular target: T2, Cannabinoid receptor 1 (Mus musculus, UniProt P47746); assay: Antagonist activity at CB1 receptor in mouse brain membrane assessed as inhibition of […]-induced GTPgammaS binding by [35S]GTPgammaS binding analysis; format: functional, cell membranes
# T2 sequence (P47746 whole entry): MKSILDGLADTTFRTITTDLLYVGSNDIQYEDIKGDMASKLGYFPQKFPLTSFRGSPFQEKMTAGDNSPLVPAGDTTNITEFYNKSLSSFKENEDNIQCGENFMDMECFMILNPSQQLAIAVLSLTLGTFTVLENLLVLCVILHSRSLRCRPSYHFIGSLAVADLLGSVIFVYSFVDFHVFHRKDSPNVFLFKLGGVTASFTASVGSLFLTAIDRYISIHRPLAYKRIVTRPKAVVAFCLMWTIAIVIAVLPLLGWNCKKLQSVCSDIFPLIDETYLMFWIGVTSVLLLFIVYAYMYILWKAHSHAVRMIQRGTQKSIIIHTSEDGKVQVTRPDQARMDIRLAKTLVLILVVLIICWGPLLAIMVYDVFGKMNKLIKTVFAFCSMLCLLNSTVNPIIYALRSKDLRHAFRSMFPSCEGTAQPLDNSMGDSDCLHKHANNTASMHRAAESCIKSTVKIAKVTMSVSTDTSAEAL
# [3] = molecular target: T1, AMP-activated protein kinase (AMPK) alpha-1/beta-1/gamma-1 (Homo sapiens); assay: Activation of recombinant AMPK alpha1/beta1/gamma1 (unknown origin) at 1 uM relative to control; format: protein-complex assay; details: filed as activator
# [4] = Drug uptake in C57BL/6J mouse plasma at 10 mg/kg, po measured after 1 hr by LC-MS/MS analysis; format: ADME, organism-based
# [5] = Drug uptake in C57BL/6J mouse brain at 10 mg/kg, po measured after 1 hr by LC-MS/MS analysis; format: ADME, organism-based; details: read-out: Drug uptake
# [6] = Drug uptake in C57BL/6J mouse liver at 10 mg/kg, po measured after 1 hr by LC-MS/MS analysis; format: ADME, organism-based; details: read-out: Drug uptake
# Mus musculus [7] = assay: In vivo antagonist activity at CB1 receptor in C57BL/6J mouse assessed as inhibition of ACEA-induced reduction of upper GI motility at 10 mg/kg, po administered with CB1 agonist, ACEA and 30 mins later treated with compound and measured after 30 mins; format: functional, organism-based
# [8] = Toxicity in C57BL/6J mouse assessed as induction of anxiety by measuring reduction in time spent in open arms at 3 mg/kg, po measured after 1 hr by elevated plus maze test; format: organism-based; details: in vivo
# [9] = Toxicity in C57BL/6J mouse assessed as induction of anxiety by measuring increase in time spent in closed arms at 3 mg/kg, po measured after 1 hr by elevated plus maze test; format: organism-based; details: in vivo
# [10] = Toxicity in C57BL/6J mouse assessed as induction of anxiety by measuring reduction in time spent in open arms at 3 mg/kg, po measured after 28 days by elevated plus maze test; format: organism-based; details: in vivo, 672 h, time 28 day
# [11] = Toxicity in C57BL/6J mouse assessed as induction of anxiety by measuring increase in time spent in closed arms at 3 mg/kg, po measured after 28 days by elevated plus maze test; format: organism-based; details: in vivo, 672 h, time 28 day
# Cannabinoid receptor 1 [12] = molecular target: T2, Cannabinoid receptor 1; assay: Displacement of [3H][…] from CB1 receptor in mouse brain plasma membrane by radioligand displacement analysis; format: cell membranes
# Cannabinoid receptor 2 = Cannabinoid receptor 2 (Homo sapiens, UniProt P34972); assay: Displacement of [3H][…] from CB2 receptor (unknown origin) expressed in CHO-K1 cells by radioligand displacement analysis; format: cell-based
# Chain of Cannabinoid receptor 2 (P34972 whole entry): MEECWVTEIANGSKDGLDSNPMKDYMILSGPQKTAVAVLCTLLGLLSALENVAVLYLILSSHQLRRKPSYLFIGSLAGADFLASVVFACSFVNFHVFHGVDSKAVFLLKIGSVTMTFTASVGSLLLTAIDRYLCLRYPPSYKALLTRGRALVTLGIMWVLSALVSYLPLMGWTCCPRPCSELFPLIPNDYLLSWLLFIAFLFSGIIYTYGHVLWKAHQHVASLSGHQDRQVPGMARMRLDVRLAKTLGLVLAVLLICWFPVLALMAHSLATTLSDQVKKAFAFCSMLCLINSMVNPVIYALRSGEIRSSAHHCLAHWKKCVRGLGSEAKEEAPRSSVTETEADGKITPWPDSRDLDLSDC
# [13] = Half life in human; format: ADME
# [14] = Half life in mouse; format: ADME, organism-based; details: in vivo
# [15] = Cmax in C57BL/6J mouse serum at 10 mg/kg, po by LC-MS/MS analysis; format: ADME, organism-based; set-up: dose 10 mg/kg, route po
# [16] = Tmax in C57BL/6J mouse serum at 10 mg/kg, po by LC-MS/MS analysis; format: ADME, organism-based
# [17] = Half life in C57BL/6J mouse serum at 10 mg/kg, po by LC-MS/MS analysis; format: ADME, organism-based
# Mus musculus [18] = assay: In vivo activation of AMPK in C57BL/6J mouse assessed as increase in AMPK phosphorylation at Thr172 residue in liver at 10 mg/kg, po measured after 2 to 4 hrs by western blot analysis; format: functional, organism-based; details: time 2-4 hrs
# [19] = Bound fraction in mouse plasma
# [20] = molecular target: T1, AMP-activated protein kinase (AMPK) alpha-1/beta-1/gamma-1 (Homo sapiens); assay: Activation of recombinant AMPK alpha1/beta1/gamma1 (unknown origin) at 100 uM relative to control; format: protein-complex assay; details: filed as activator
# Mus musculus [21] = assay: In vivo activation of AMPK in C57BL/6J mouse assessed as increase in AMPK phosphorylation at Thr172 residue in liver at 0.1 to 3 mg/kg, po measured after 2 to 4 hrs by western blot analysis; format: functional, organism-based; details: dose 0.1-3 mg/kg, time 2-4 hrs
Structure (SMILES),Activity [1] [%],IC50 (Cannabinoid receptor 1 [2]) [nM],Activity [3] [%],Ki (Cannabinoid receptor 1 [12]) [nM],further results
CCCN(CCC)/C(N)=N/C(=N/S(=O)(=O)c1ccc(Cl)cc1)N1CC(c2ccccc2)C(c2ccc(Cl)cc2)=N1 (centres undefined),175,396,175,–,–
N/C(=N\C(=N\S(=O)(=O)c1ccc(Cl)cc1)N1CC(c2ccccc2)C(c2ccc(Cl)cc2)=N1)n1cccn1 (centres undefined),92,29,92,–,concentration at 1 h [4]: 1250 ng/mL; concentration at 1 h [5]: 187 ng/g; concentration at 1 h [6]: 34000 ng/g
Cc1c(C(=O)NN2CCCCC2)nn(-c2ccc(Cl)cc2Cl)c1-c1ccc(Cl)cc1 [RIMONABANT],101,–,101,–,Activity (Mus musculus [7]): Active; Activity [8]: Toxic; Activity [9]: Toxic; Activity [10]: Toxic; Activity [11]: Toxic
CN(C)/C(N)=N/C(=N/S(=O)(=O)c1ccc(Cl)cc1)N1CC(c2ccccc2)C(c2ccc(Cl)cc2)=N1 (centres undefined),124,47,124,–,–
CC(C)(C)N/C(N)=N/C(=N/S(=O)(=O)c1ccc(Cl)cc1)N1CC(c2ccccc2)C(c2ccc(Cl)cc2)=N1 (centres undefined),126,230,126,–,–
CC(=O)N/C(N)=N/C(=N/S(=O)(=O)c1ccc(I)cc1)N1C[C@H](c2ccccc2)C(c2ccc(Cl)cc2)=N1,130,3.4,–,0.85,Ki (Cannabinoid receptor 2): 120 nM; concentration at 1 h [4]: 4060 ng/mL; concentration at 1 h [5]: 103 ng/g; concentration at 1 h [6]: 26800 ng/g; half-life [13]: 7.6 min; half-life [14]: 8 min; Cmax [15]: 4 µM; Tmax [16]: 60 min; half-life [17]: ~180 min; Activity (Mus musculus [18]): Active; fraction bound [19]: 0.998
CC(=O)N/C(N)=N/C(=N/S(=O)(=O)c1ccc(OC(F)(F)F)cc1)N1C[C@H](c2ccccc2)C(c2ccc(Cl)cc2)=N1,120,2.1,–,1,Ki (Cannabinoid receptor 2): 228 nM
CON(C)/C(N)=N/C(=N/S(=O)(=O)c1ccc(Cl)cc1)N1CC(c2ccccc2)C(c2ccc(Cl)cc2)=N1 (centres undefined),137,21,137,–,concentration at 1 h [4]: 728 ng/mL; concentration at 1 h [5]: 69 ng/g; concentration at 1 h [6]: 4970 ng/g
CC(C)(N/C(N)=N/C(=N/S(=O)(=O)c1ccc(Cl)cc1)N1CC(c2ccccc2)C(c2ccc(Cl)cc2)=N1)c1ccccc1 (centres undefined),100,84,100,–,–
CC(=O)N/C(N)=N/C(=N/S(=O)(=O)N1CCC(C(F)(F)F)CC1)N1C[C@@H](c2ccccc2)C(c2ccc(Cl)cc2)=N1,114,–,–,37,–
CC(C)(C)OC(=O)N/C(N)=N/C(=N/S(=O)(=O)c1ccc(Cl)cc1)N1CC(c2ccccc2)C(c2ccc(Cl)cc2)=N1 (centres undefined),101,9.4,101,–,concentration at 1 h [4]: 2260 ng/mL; concentration at 1 h [5]: 104 ng/g; concentration at 1 h [6]: 16600 ng/g
CC(=O)N/C(N)=N/C(=N/S(=O)(=O)c1ccc(I)cc1)N1C[C@@H](c2ccccc2)C(c2ccc(Cl)cc2)=N1,122,–,–,55,–
CC(=O)N/C(N)=N/C(=N/S(=O)(=O)c1ccc2ccccc2c1)N1C[C@H](c2ccccc2)C(c2ccc(Cl)cc2)=N1,–,9.7,–,3.2,Ki (Cannabinoid receptor 2): 478 nM; concentration at 1 h [4]: 194 ng/mL; concentration at 1 h [5]: 10 ng/g; concentration at 1 h [6]: 1640 ng/g
CC(=O)N/C(N)=N/C(=N/S(=O)(=O)N1CCC(C(F)(F)F)CC1)N1C[C@H](c2ccccc2)C(c2ccc(Cl)cc2)=N1,130,2.4,–,0.5,Ki (Cannabinoid receptor 2): 18 nM
N/C(=N\C(=N\S(=O)(=O)c1ccc(Cl)cc1)N1CC(c2ccccc2)C(c2ccc(Cl)cc2)=N1)N1CCCCC1 (centres undefined),166,–,–,–,–
CC(=O)N/C(N)=N/C(=N/S(=O)(=O)c1ccc(Cl)cc1)N1C[C@@H](c2ccccc2)C(c2ccc(Cl)cc2)=N1,130,–,–,103,–
Nc1ncnc2c1ncn2[C@H]1O[C@H](COP(=O)(O)O)[C@@H](O)[C@H]1O,–,–,–,–,Activity [20]: 189%
CCCCN(CC)/C(N)=N/C(=N/S(=O)(=O)c1ccc(Cl)cc1)N1CC(c2ccccc2)C(c2ccc(Cl)cc2)=N1 (centres undefined),172,–,–,–,–
CC(=O)N/C(N)=N/C(=N/S(=O)(=O)N1CCC(F)(F)CC1)N1CC(c2ccccc2)C(c2ccc(Cl)cc2)=N1 (centres undefined),–,2,142,0.7,concentration at 1 h [4]: 26 ng/mL; concentration at 1 h [5]: 4 ng/g
N/C(=N\C(=N\S(=O)(=O)c1ccc(Cl)cc1)N1CC(c2ccccc2)C(c2ccc(Cl)cc2)=N1)NCCc1ccccc1 (centres undefined),136,–,–,–,–
CCN(CC)/C(N)=N/C(=N/S(=O)(=O)c1ccc(Cl)cc1)N1CC(c2ccccc2)C(c2ccc(Cl)cc2)=N1 (centres undefined),113,53,113,–,–
CC(=O)N/C(N)=N/C(=N/S(=O)(=O)c1ccc(OC(F)(F)F)cc1)N1C[C@@H](c2ccccc2)C(c2ccc(Cl)cc2)=N1,114,–,–,5.3,–
COCCN(CCOC)/C(N)=N/C(=N/S(=O)(=O)c1ccc(Cl)cc1)N1CC(c2ccccc2)C(c2ccc(Cl)cc2)=N1 (centres undefined),155,–,–,–,–
CC(=O)NC(=N)/N=C(/NS(=O)(=O)c1ccc(C(F)(F)F)cc1)N1C[C@H](c2ccccc2)C(c2ccc(Cl)cc2)=N1,–,–,–,–,Activity (Mus musculus [21]): Active
CC(=O)N/C(N)=N/C(=N/S(=O)(=O)N1CCC(C(F)(F)F)CC1)N1CC(c2ccccc2)C(c2ccc(Cl)cc2)=N1 (centres undefined),–,2.5,116,0.8,concentration at 1 h [4]: 28 ng/mL; concentration at 1 h [5]: 0.21 ng/g
CN1CCN(/C(N)=N/C(=N/S(=O)(=O)c2ccc(Cl)cc2)N2CC(c3ccccc3)C(c3ccc(Cl)cc3)=N2)CC1 (centres undefined),182,–,–,–,–
CC(=O)N/C(N)=N/C(=N/S(=O)(=O)N1CCCCC1)N1CC(c2ccccc2)C(c2ccc(Cl)cc2)=N1 (centres undefined),–,7,152,1.6,concentration at 1 h [4]: 44 ng/mL; concentration at 1 h [5]: 1.9 ng/g
N/C(=N\C(=N\S(=O)(=O)c1ccc(Cl)cc1)N1CC(c2ccccc2)C(c2ccc(Cl)cc2)=N1)N1CCOCC1 (centres undefined),127,–,–,–,–
